Where a SMILES comes first, the peptide text is derived from it. Bridges are numbered along the chain shown (N, C = ends). [ ]: non-standard residue; d: D form. S5 = C=CCCC[C@](C)(N)C(=O)O
Tests used:
[1] = Circular dichroism spectroscopy, percent α-helix; assay type: physicochemical; conditions: CD spectroscopy
Text: Circular Dichroism (CD) Spectroscopy.

HCT116 p53^−/− = assay: Cell viability assay (CCK8), HCT116 p53-/-; assay type: cell-based, human; conditions: 100 μM
Protocol: Cell Viability Assay. […] The absorbance at 450 nm was then measured followed by the addition of CCK8 kit, and percent cell viability was calculated on the ratio of the A450 of sample wells versus reference wells.

[2] = system: p53, MDM2 and p21 in HCT116 p53^+/+ cells; assay: Western blot analysis of MDM2, p21 and p53 expression; assay type: cell-based, human; conditions: 8 h after treatment, 10, 20, 30 μM
Protocol: Western Blot Analysis. […] The cells were lysed (20 mM Tris-HCl pH 8.0, 0.8% SDS, 1 mM PMSF, 1 U mL^−1 benzonase nuclease) and the crude lysates were clarified by brief centrifugation and total protein concentration was determined by using the Pierce BCA protein assay. Aliquots containing 5 μg of total protein were run on 4-12% Bis-Tris polyacrylamide gels (Invitrogen).

HCT116 p53^+/+ cells [3] = assay: Cell apoptosis assay (annexin V-FITC/PI flow cytometry), HCT116 p53+/+; assay type: cell-based, human; conditions: 10, 20, or 30 μM
Protocol: (§1) Cell Apoptosis Assay. […] No treatment controls were established. Culture medium that may contain detached cells was collected, and attached cells were trypsinized. After centrifugation and removal of the supernatants, cells were resuspended in 300 μL of 1×binding buffer which was then added to 5 μL of annexin V-FITC and incubated at room temperature for 15 min. After addition of 10 μL of PI, the cells were incubated at room temperature for another 10 min in the dark. The stained cells were analyzed by a flow cytometer (BD-FACSVerse).

HCT116 p53^−/− cells = assay: Cell apoptosis assay (annexin V-FITC/PI flow cytometry), HCT116 p53-/-; assay type: cell-based, human; conditions: identical treatment conditions, 10, 20, or 30 μM
Protocol: as §1

HCT116 p53^+/+ cells [4] = assay: Cellular uptake by confocal microscopy; assay type: cell-based, human; conditions: FITC-labeled peptide, 20 μM, 4 h
Protocol: Cellular uptake of ^DTCPMI. […] Cells were then incubated with 20 μM FITC-^DTCPMI Ctrl. or FITC-^DTCPMI for 4 h. Cells were washed with Dulbecco's phosphate buffered saline, fixed with 4% (wt/vol) paraformaldehyde, finally incubated by DAPI to stain the cell nucleus. Imaged using an LSM 510 Zeiss Axiovert 200M (v4.0) confocal microscope. Images were analyzed using an LSM image browser.

[5] = Comparison of solubility between DTC and hydrocarbon link (OD 600 nm in PBS); assay type: physicochemical; conditions: PBS buffer, 2-fold serial dilution from 20 mg/ml, OD at 600 nm
Protocol: Comparison of Solubility between DTC and Hydrocarbon link. […] OD values were measured at 600 nm on a Biotech Synergy 4 plate reader. PBS was set as blank control.

## CC(=O)N[C@H](C(=O)N[C@@H](CO)C(=O)N[C@@H](Cc1ccccc1)C(=O)N[C@H]1CCCCNC(=S)SC[C@@H](C(=O)N[C@@H](CC(C)C)C(=O)N[C@@H](CC(C)C)C(=O)N[C@@H](CO)C(=O)N[C@@H](CCCNC(=N)N)C(N)=O)NC(=O)[C@H](Cc2c[nH]c3ccccc23)NC(=O)[C@H](Cc2ccc(O)cc2)NC(=O)[C@H](CCC(N)=O)NC1=O)[C@@H](C)O [^DTCPMI]
[1]; Table 3
  α-helix (%): 76%
[1]; Table 7
  α-helix (%): 62.2%
HCT116 p53^−/−
  cell viability of HCT116 p53-/- cells at high concentration: significantly reduced cell viability
[2]
  induction of p53, MDM2 and p21 (Western blotting): dose-dependent induction of p53, MDM2 and p21
HCT116 p53^+/+ cells [3]
  induction of apoptosis of HCT116 p53+/+ cells (FACS): dose-dependent induction of apoptosis
HCT116 p53^−/− cells
  apoptosis of HCT116 p53-/- cells (FACS): no obvious apoptosis
HCT116 p53^+/+ cells [4]
  intracellular localization / cellular uptake (confocal microscopy): diffused intracellular localization, demonstrating efficient cellular uptake

## CC(=O)N[C@H](C(=O)N[C@@H](CO)C(=O)N[C@@H](Cc1ccccc1)C(=O)N[C@@]1(C)CCCC=CCCC[C@@](C)(C(=O)N[C@@H](CC(C)C)C(=O)N[C@@H](CC(C)C)C(=O)N[C@@H](CO)C(=O)N[C@@H](CCCNC(=N)N)C(N)=O)NC(=O)[C@H](Cc2c[nH]c3ccccc23)NC(=O)[C@H](Cc2ccc(O)cc2)NC(=O)[C@H](CCC(N)=O)NC1=O)[C@@H](C)O [^HCPMI] (Ac-TSF[S5]QYW[S5]LLSR-NH2; staple 4-8)
[5]
  solubility: ≥ 300 µg/mL
